Laboratory results published in US10988741B2, “Mutated genes for the catalytic protein of Oplophorus luciferase and use thereof” (JNC CORPORATION, priority 2014, dated 2021).

What was measured:
[1] = reported in the literature (Patent Document 2, Non-Patent Documents 5 and 6); cited from earlier work
[2] = Luminescence activity of ZZ-fused nanoKAZ mutants expressed in E. coli (soluble fraction); assay type: biochemical; conditions: nanoKAZ with CTZ = 1.0
Experimental: The E. coli BL21 strain (manufactured by Novagen) was used as a host cell. The strain was cultured in 10 mL of Luria-Bertani medium containing ampicillin (50 μg/mL) at 37° C. for 18 hours. The seed culture was inoculated to 10 mL of LB medium and incubated for 3 hours, followed by cooling in an ice-water bath for 1 hour. IPTG was added to the culture medium at a final concentration of 0.2 mM, followed by incubation at 15° C. for further 20 hours. The E. coli cells were collected from 1 mL of the culture medium by centrifugation. The collected E. coli cells were suspended in 0.5 mL of 50 mM Tris-HCl (pH 7.6) containing 10 mM EDTA (manufactured by Wako Pure Chemical Industries, Ltd.). The cells were disrupted by sonication for 5 seconds using a Branson Model 250 Sonifire. The cells were subjected to high-speed centrifugation to recover 0.5 mL of the supernatant as a soluble fraction containing the ZZ-fused nanoKAZ mutant. This soluble fraction, 5 μL, was subjected to SDS-PAGE electrophoresis to confirm expression of the proteins. In FIG. 2, numerals 1 to 5 represent as follows: 1: molecular weight size markers; 2: nanoKAZ, 3: nanoKAZ-AQQL, 4: nanoKAZ-KVA, 5: nanoKAZ-FLM. The results in FIG. 2 reveal that each mutated nanoKAZ protein was expressed in E. coli as soluble proteins at the same expression level as in nanoKAZ.
After 5 μL of the soluble fraction solution obtained in EXAMPLE 3 was added to 100 μL of 50 mM Tris-HCl (pH 7.6)-10 mM EDTA containing 1 μg of coelenterazine (manufactured by JNC Corp.) or its analogue, a luminescence reaction was started. Luminescence activity was measured for 60 seconds using a luminometer (manufactured by Atto Inc.: AB2200). The relative maximum intensity of luminescence (Imax) and the integrated values for 60 seconds within parentheses in terms of relative intensity of luminescence are shown in TABLE 2.
The coelenterazine analogues used for substrate specificity studies were synthesized by the methods described in publications, respectively. Specifically, bis-coelenterazine was synthesized by the method described in Nakamura et al. (1997) Tetrahedron Lett. 38: 6405-6406, furimazine by the method described in Hall et al. (2012) ACS Chem. Biol. […], h-coelenterazine by the method described in Inouye et al (2010) Anal. Biochem. 407:247-252 and 6h-coelenterazine and 6h-f-coelenterazine by the method described in Inouye et al (2013) Biochem. Biophys. Res. Commun. 437: 23-28. f-coelenterazine was purchased from Prolume Ltd. Luminescence activity of the ZZ-fused nanoKAZ mutants was measured by the method described in EXAMPLE 4.

[3] = Luminescence activity of nanoKAZ mutants in culture medium of CHO-K1 cells without secretory signal peptide sequence; assay type: biochemical; conditions: substrate coelenterazine (CTZ), nanoKAZ = 1.0
Experimental: Chinese hamster ovary cell line CHO-K1 was cultured in Ham's F-12 medium (manufactured by Wako Pure Chemical Industries, Ltd.) supplemented with 10% (v/v) fetal bovine serum (manufactured by Biowest Inc.). The CHO-K1 cells were seeded in a 6-well plate in 2×10^5 cells/well/2 mL medium (n=2) and cultured in an incubator at 37° C. in 5% (v/v) CO2. After 24 hours, the purified recombinant plasmid was transfected to CHO-K1 cells using a FuGene HD transfection kit (manufactured by Promega Corp.) and the cells were provided for subsequent experiment. […]
(§1) The crude enzyme solution, 5 μl, obtained in EXAMPLE 8 was added to 100 μl of 30 mM Tris-HCl (pH 7.6)-10 mM EDTA (Wako Pure Chemical Industries, Ltd.) containing 1 μg of coelenterazine (manufactured by JNC Corp.), and the luminescence reaction was started. Luminescence activity was measured for 60 seconds using a luminometer (manufactured by Atto Inc.: AB2200); the maximum intensity of luminescence (Imax) and the integrated values for 60 seconds within parentheses in terms of relative intensity of luminescence are shown in TABLE 3.
Luminescence activity of the nanoKAZ mutants in culture medium, which were secreted from animal culture cells without using a secretory signal peptide sequence, was measured by the method described in EXAMPLE 9. […]

[4] = Luminescence activity of nanoKAZ mutants secreted into culture medium from CHO-K1 cells using secretory signal peptide sequence; assay type: biochemical; conditions: nanoKAZ with CTZ = 1.0
Experimental: (§2) Chinese hamster ovary cell line CHO-K1 was cultured in Ham's F-12 medium (manufactured by Wako Pure Chemical Industries, Ltd.) supplemented with 10% (v/v) fetal bovine serum (manufactured by Biowest Inc.). The CHO-K1 cells were seeded in a 6-well plate in 2×10^5 cells/well/2 mL medium (n=2) and cultured in an incubator at 37° C. in 5% (v/v) CO2. After 24 hours, the purified recombinant plasmid was transfected to CHO-K1 cells using a FuGene HD transfection kit (manufactured by Promega Corp.) and the cells were provided for subsequent experiment. Specifically, 1 μg of the recombinant plasmid, 0.1 μg of the internal standard vector pGL4.13 [Luc2/sv40] and 3.3 μL of FuGene HD were added to 100 μL of the medium and allowed to stand at room temperature for 15 minutes. Subsequently, 100 μL of the DNA-FuGene complex solution was added to the cells in the 6-well plate. After incubation for 46 hours, the culture medium was collected.
as §1
(§3) Luminescence activity of the nanoKAZ mutants secreted into the culture medium from animal cultured cells using the secretory signal peptide sequence was measured by the method described in EXAMPLE 9. […] The nanoKAZ-AQQL mutant is secretable protein and can use coelenterazine as the most efficient substrate for the luminescence reaction.

[5] = as above; assay type: biochemical; conditions: substrate furimazine, with secretory signal peptide, nanoKAZ with CTZ = 1.0
Experimental: as §2, with “Subsequently, 100 μL of the DNA-FuGene complex solution was added to the cells in the 6-well plate. After incubation for 46 hours, the culture medium was collected.” left out
Luminescence activity was measured for 60 seconds using a luminometer (manufactured by Atto Inc.: AB2200); the maximum intensity of luminescence (Imax) and the integrated values for 60 seconds within parentheses in terms of relative intensity of luminescence are shown in TABLE 3.
as §3

[6] = substrate 6h-coelenterazine, with secretory signal peptide
[7] = substrate 6h-f-coelenterazine, with secretory signal peptide
[8] = substrate bis-coelenterazine, with secretory signal peptide
[9] = substrate coelenterazine (CTZ), with Gaussia luciferase secretory signal peptide
[10] = substrate f-coelenterazine, with secretory signal peptide
[11] = substrate h-coelenterazine, with secretory signal peptide

Which “luminescence activity, fold higher than that of native 19 kDa protein” value [1] does the source give for “nanoKAZ: known mutated 19 kDa catalytic protein of Oplophorus luciferase with 16 amino acid mutations; amino acid sequence SEQ ID NO: 2” here?
The value was “approximately 10 fold”.

What about the “Relative maximum intensity of luminescence Imax” value (shortened to “Relative maximum intensity”) ([2]; substrate 6h-coelenterazine) of the same substance?
The value was 0.6.

What about the “integrated values of relative intensity of luminescence for 1 min” value ([2]; substrate 6h-coelenterazine) of the same substance?
The value was “(0.4)”.

And the “Relative maximum intensity” value ([2]; substrate 6h-f-coelenterazine)?
Its value is 7.9.

What about the “integrated values of relative intensity of luminescence for 1 min” value ([2]; substrate 6h-f-coelenterazine) of the same substance?
Its value is “(4.6)”.

What about the “Relative maximum intensity” value ([2]; substrate bis-coelenterazine) of the same substance?
The value was 9.0.

And the “integrated values of relative intensity of luminescence for 1 min” value ([2]; substrate bis-coelenterazine)?
Its value is “(6.3)”.

And the “Relative maximum intensity” value ([2]; substrate coelenterazine (CTZ))?
The value was 1.0.

And the “integrated values of relative intensity of luminescence for 1 min” value ([2]; substrate coelenterazine (CTZ))?
Its value is “(1.0)”.

And the “Relative maximum intensity” value ([2]; substrate f-coelenterazine)?
The value was 20.2.

What about the “integrated values of relative intensity of luminescence for 1 min” value ([2]; substrate f-coelenterazine) of the same substance?
Its value is “(10.0)”.

And the “Relative maximum intensity” value ([2]; substrate furimazine)?
The value was 4.8.

And the “integrated values of relative intensity of luminescence for 1 min” value ([2]; substrate furimazine)?
Its value is “(3.7)”.

And the “Relative maximum intensity” value ([2]; substrate h-coelenterazine)?
The value was 14.2.

What about the “integrated values of relative intensity of luminescence for 1 min” value ([2]; substrate h-coelenterazine) of the same substance?
Its value is “(7.4)”.

What about the “Relative maximum intensity” value [3] of the same substance?
The value was 1.0 (1.0).

What about the “integrated values of relative intensity of luminescence for 1 min” value [3] of the same substance?
Its value is 1.0 (1.0).

And the “Relative maximum intensity” value [4, 6]?
Its value is 0.8.

And the “integrated values of relative intensity of luminescence for 1 min” value [4, 6]?
The value was “(0.7)”.

And the “Relative maximum intensity” value [4, 7]?
Its value is 11.7.

What about the “integrated values of relative intensity of luminescence for 1 min” value [4, 7] of the same substance?
Its value is “(11.8)”.

And the “Relative maximum intensity” value [4, 8]?
The value was 11.1.

And the “integrated values of relative intensity of luminescence for 1 min” value [4, 8]?
The value was “(11.1)”.

And the “Relative maximum intensity” value [4, 9]?
The value was 1.0.

And the “integrated values of relative intensity of luminescence for 1 min” value [4, 9]?
The value was “(1.0)”.

And the “Relative maximum intensity” value [4, 10]?
Its value is 21.6.

What about the “integrated values of relative intensity of luminescence for 1 min” value [4, 10] of the same substance?
Its value is “(12.2)”.

What about the “Relative maximum intensity” value [4, 11] of the same substance?
The value was 16.4.

And the “integrated values of relative intensity of luminescence for 1 min” value [4, 11]?
The value was “(9.9)”.

What about the “Relative maximum intensity” value [5] of the same substance?
Its value is 5.9.

What about the “integrated values of relative intensity of luminescence for 1 min” value [5] of the same substance?
Its value is “(6.2)”.
